Source: PMC8765781, “A platform of assays for the discovery of anti-Zika small-molecules with activity in a 3D-bioprinted outer-blood-retina model” (PLoS ONE, 2022)
Where two headings read alike, the source gives them in different places. *1 amine or outer side, *2 acyl side, *3 side chain or, on linkers, in order; H or OH if unused. Where a SMILES comes first, the peptide text is derived from it. [ ]: non-standard residue; d: D form. The star is where a group is joined. ξ: configuration not given here. X2 = CCC(C)(N*)C(=O)C1CC[C@@H](C(=O)N[CH]Cc2ccccc2)N1; X1 = O=C([C@@H]1CC(O)CN1[*:1])[*:2]; aIle = CC[C@@H](C)[C@H](N)C(=O)O; Thr(3ξ) = CC(O)[C@H](N)C(=O)O; ξIva = CCC(C)(N)C(=O)O; Aib = CC(C)(N)C(=O)O

How the values were obtained:
[1] = test system: DENV (Dengue virus type 2, strain New Guinea C)
[2] = test system: wild-type ZIKV (Ugandan MR766 strain) in Vero cells; experiment: ZIKV cytopathic effect (CPE) inhibition qHTS assay, CellTiter-Glo readout; assay type: cell-based, Zika virus; conditions: for AC50 / IC50: Zika virus; for IC50: read-out: ZIKV-infection (CPE, ZIKV Antiviral Assays), IC50
[3] = test system: caspase-3 activity induced by ZIKV in Vero cells; experiment: cells; assay type: cell-based; conditions: Zika virus, read-out: Caspase 3 (ZIKV Antiviral Assays), IC50
[4] = test system: ZIKV-RLuc (Cambodian strain FSS13025); experiment: microbe, parasite or virus in culture; assay type: cell-based, Zika virus; conditions: Zika virus, Vero, 48 h, read-out: Rluc-ZIKV (ZIKV Antiviral Assays), IC50
[5] = test system: ZIKV-mCherry (Cambodian strain FSS13025); experiment: microbe, parasite or virus in culture; assay type: cell-based, Zika virus; conditions: for AC50: Zika virus, Vero
in vitro = conditions: African green monkey
[6] = test system: mCherry-ZIKV in human neuronal progenitor cells; experiment: microbe, parasite or virus in culture; assay type: cell-based, Zika virus
[7] = Vero, from Hill fit of the response curve, 50% of maximum activity response, 194 cherry-picked compounds, protocol name not given, read-out: AC50
[8] = Vero, potency in log units (Molar) from Hill fit of the response curve, 194 cherry-picked compounds, protocol name not given, read-out: Log AC50 (converted)
[9] = Vero cells, wild-type ZIKV MOI 1, 48 hr, unit inferred
[10] = curve class v2 (Inglese et al. 2006)
[11] = difference between neutral response and maximum compound response
[12] = ZIKV-infected Vero cells, 48 hr, unit inferred
[13] = read-out: Log AC50 (M) (converted)
[14] = Vero, read-out: Log AC50 (M) (converted)

CCN(CC)CCCC(C)Nc1ccnc2cc(Cl)ccc12 (stereo not drawn) [NCGC00015256, chloroquine, reference compound]
DENV active Yes/No [1]: No
ZIKV active Yes/No (ZIKV): No
WHV active Yes/No (WNV (Kern515/WN02)): No
SI value YFV (CC50/EC50) (YFV (YFV 17D)): 1.2
YFV active Yes/No (YFV (YFV 17D)): No

CCC/C=C/C(=O)O[C@H]1CC(C)(C)CC2[C@@]13[C@H](O)C[C@]1(C)[C@@]2(CCC2[C@@]4(C)CC[C@H](O[C@@H]5O[C@H](C(=O)O)[C@@H](O)[C@H](O[C@@H]6O[C@H](CO)[C@H](O)[C@H](O)[C@H]6O[C@@H]6O[C@@H](C)[C@H](O)[C@@H](O)[C@H]6O[C@@H]6OC[C@](O)(CO)[C@H]6O)[C@H]5O[C@@H]5O[C@H](CO)[C@H](O)[C@H](O)[C@H]5O)C(C)(C)C4CC[C@]21C)O[C@H]3O (stereo partly drawn) [NCGC00385970-01]
AC50 [2, 7]: 3.09e-06 M
AC50 [2, 8]: 3.09e-06 M
IC50 [2, 9]: 3.09 µM
CC-v2 (curve class classification of the dose response curve) [2, 10]: -1.2
Efficacy [2, 11]: -40.513
IC50 [3, 12]: 0.5 µM
IC50 [4]: 2.23 µM
CC-v2 (curve class of the dose response curve) [5]: -1.3
Efficacy (difference between neutral response and maximum compound response) [5]: -68.04
Max Resp (difference between neutral response and response at highest compound concentration) [5]: -100.305
AC50 [5]: 2.53e-06 M
AC50 [5, 13]: 2.53e-06 M
CC50 (in vitro): > 50 µM

C=C(C)C(C)C1OC23CC4(CO2)C(CCC2C5(C)CCC(OC6OCC(O)C(OC7OC(CO)C(O)C(OC8OCC(O)C(O)C8O)C7O)C6OC6OC(CO)C(O)C6O)C(C)(C)C5CCC24C)C3C(C)(O)C1OC(C)=O (stereo not drawn) [NCGC00384732-01]
AC50 [2, 7]: 1.38e-05 M
AC50 [2, 8]: 1.38e-05 M
IC50 [2, 9]: 13.8 µM
Efficacy [2, 11]: -32.277
IC50 [3, 12]: 0.16 µM
IC50 [4]: 6.95 µM
CC-v2 (curve class of the dose response curve) [5]: -1.4
Efficacy (difference between neutral response and maximum compound response) [5]: -78.707
Max Resp (difference between neutral response and response at highest compound concentration) [5]: -96.911
CC50 at 48 h (in vitro): > 50 µM

CC(=O)OCC1OC(OC2COC(OC3COC(OC4C(OC5C(CO)OC(OC6CCC7(C)C(CCC8(C)C7CC=C7C9CC(C)(C)CCC9(C(=O)OC9OC(CO)C(O)C(O)C9OC9OCC(OC%10OCC(O)(CO)C%10O)C(O)C9O)C(O)CC78C)C6(C)C)C(O)C5O)OCC(O)C4O)C(O)C3O)C(O)C2O)C(OC(=O)/C=C/c2ccccc2)C(O)C1OC(C)=O (stereo not drawn) [NCGC00381294-01]
AC50 [2, 7]: 5.62e-06 M
AC50 [2, 8]: 5.62e-06 M
IC50 [2, 9]: 5.62 µM
CC-v2 (curve class classification of the dose response curve) [2, 10]: -2.2
Efficacy [2, 11]: -55.683
IC50 [3, 12]: 0.2 µM
IC50 [4]: 1.6 µM
CC-v2 (curve class of the dose response curve) [5]: -1.3
Efficacy (difference between neutral response and maximum compound response) [5]: -53.243
Max Resp (difference between neutral response and response at highest compound concentration) [5]: -100.305
AC50 [5]: 1.16e-06 M
AC50 [5, 13]: 1.16e-06 M
CC50 (in vitro): > 50 µM

C[C@H]1CC[C@@]2(OC1)O[C@H]1CC3[C@@H]4CC[C@@H]5C[C@@H](O[C@@H]6O[C@H](CO)[C@@H](O[C@@H]7O[C@@H](C)[C@H](O)[C@@H](O)[C@H]7O)[C@H](O)[C@H]6O[C@@H]6O[C@H](CO)[C@@H](O)[C@H](O)[C@H]6O)CC[C@]5(C)C4CC[C@]3(C)[C@H]1[C@@H]2C (stereo partly drawn) [NCGC00347372-02, Asparanin B]
AC50 [2, 7]: 1.1e-05 M
AC50 [2, 8]: 1.1e-05 M
IC50 [2, 9]: 11 µM
CC-v2 (curve class classification of the dose response curve) [2, 10]: -2.2
Efficacy [2, 11]: -63.699
IC50 [3, 12]: 6.98 µM
IC50 [4]: 6.19 µM
CC-v2 (curve class of the dose response curve) [5]: -1.2
Efficacy (difference between neutral response and maximum compound response) [5]: -51.182
Max Resp (difference between neutral response and response at highest compound concentration) [5]: -100.305
AC50 [5]: 1.27e-06 M
AC50 [5, 13]: 1.27e-06 M
CC50 at 48 h (in vitro): > 50 µM

C/C=C(\C)C(=O)O[C@H]1[C@H](OC(C)=O)[C@]2(CO)[C@H](O)[C@H](O)[C@]3(C)C(=CCC4[C@@]5(C)CC[C@H](O[C@@H]6O[C@H](C(=O)O)[C@@H](O)[C@H](O[C@@H]7OC[C@H](O)[C@H](O[C@@H]8OC[C@H](O)[C@H](O)[C@H]8O)[C@H]7O)[C@H]6O[C@@H]6O[C@H](CO)[C@@H](O)[C@H](O)[C@H]6O)C(C)(C)C5CC[C@]43C)[C@@H]2CC1(C)C (stereo partly drawn) [NCGC00381072-01]
Efficacy [2]: -30.676
AC50 ([2]; Vero): 8.71e-06 M
IC50 ([2]; Vero, 48 h): 8.71 µM
AC50 [2, 14]: 8.71e-06 M
IC50 ([3]; Vero, 48 h): 2.52 µM
IC50 [4]: 4.45 µM
CC-v2 (curve class of the dose response curve) [5]: -2.2
Efficacy (difference between neutral response and maximum compound response) [5]: -56.385
Max Resp (difference between neutral response and response at highest compound concentration) [5]: -100.02
AC50 [5]: 5.66e-06 M
AC50 [5, 13]: 5.66e-06 M
CC50 (in vitro): > 50 µM

CC1(C)CC[C@]2(C(=O)O)CC[C@]3(C)C(=CCC4[C@@]5(C)C[C@H](O)[C@H](O[C@@H]6OC[C@H](O)[C@H](O)[C@H]6O)[C@@](C)(CO)C5CC[C@]43C)[C@@H]2C1 (stereo partly drawn) [NCGC00384893-01]
Efficacy [2]: -24.539
AC50 ([2]; Vero): 5.44e-06 M
IC50 ([2]; Vero, 48 h): 5.44 µM
AC50 [2, 14]: 5.44e-06 M
IC50 ([3]; Vero, 48 h): > 48 µM
IC50 [4]: 9.81 µM
CC-v2 (curve class of the dose response curve) [5]: -1.4
Efficacy (difference between neutral response and maximum compound response) [5]: -59.557
Max Resp (difference between neutral response and response at highest compound concentration) [5]: -100.29
CC50 at 48 h (in vitro; Vero cells): > 50 µM

CC[C@@H](C)[C@H](NC(=O)C(C)(C)NC(=O)[C@H](CCC(N)=O)NC(=O)C(C)(CC)NC(=O)[C@H](Cc1c[nH]c2ccccc12)NC(C)=O)C(=O)N[C@H](C(=O)NC(C)(C)C(=O)N[C@@H](CC(C)C)C(=O)NC(C)(C)C(=O)N1CCC[C@H]1C(=O)N[C@@H](CCC(N)=O)C(=O)NC(C)(C)C(=O)N1CC(O)C[C@H]1C(=O)NC(C)(CC)C(=O)C1CC[C@@H](C(=O)N[CH]Cc2ccccc2)N1)C(C)O (stereo partly drawn) [NCGC00385349-01] (Ac-W[ξIva]Q[Aib][aIle][Thr(3ξ)][Aib]L[Aib]PQ[Aib][X1]-X2)
CC-v2 (curve class classification of the dose response curve) [2]: -3
Efficacy [2]: -36.779
AC50 ([2]; Vero): 1e-05 M
IC50 ([2]; Vero, 48 h): 10 µM
AC50 [2, 14]: 1e-05 M
IC50 ([3]; Vero, 48 h): > 48 µM
IC50 [4]: 4.52 µM
CC-v2 (curve class of the dose response curve) [5]: -1.4
Efficacy (difference between neutral response and maximum compound response) [5]: -52.827
Max Resp (difference between neutral response and response at highest compound concentration) [5]: -100.29
CC50 (in vitro): > 50 µM

CS[C@H]1SC[C@@H]2C(=O)N(C)[C@H](C(C)C)C(=O)OC[C@H](NC(=O)c3cnc4ccccc4n3)C(=O)N[C@H](C)C(=O)N(C)[C@H]1C(=O)N(C)[C@H](C(C)C)C(=O)OC[C@H](NC(=O)c1cnc3ccccc3n1)C(=O)N[C@H](C)C(=O)N2C [NCGC00163548-03]
CC-v2 (curve class of the dose response curve) [5]: -1.1
Efficacy (difference between neutral response and maximum compound response) [5]: -108.47
Max Resp (difference between neutral response and response at highest compound concentration) [5]: -100.29
AC50 [5]: 2.99e-09 M
AC50 [5, 13]: 2.99e-09 M
Antiviral activity in human NPC [6]: moderate antiviral activity
DENV active Yes/No [1]: No
ZIKV active Yes/No (ZIKV): No
WHV active Yes/No (WNV (Kern515/WN02)): No
YFV active Yes/No (YFV (YFV 17D)): No

C=C(C)C(=O)O[C@H]1CC2=CC(C/C(C)=C/[C@H]3OC(=O)C(=C)[C@H]13)OC2=O (stereo partly drawn) [NCGC00384526-01]
CC-v2 (curve class classification of the dose response curve) [2]: -1.1
Efficacy [2]: -93.113
AC50 ([2]; Vero): 1.43e-05 M
IC50 ([2]; Vero, 48 h): 14.3 µM
AC50 [2, 14]: 1.43e-05 M
IC50 ([3]; Vero, 48 h): 6.46 µM
IC50 [4]: 10.2 µM
CC-v2 (curve class of the dose response curve) [5]: 4
Efficacy (difference between neutral response and maximum compound response) [5]: 0
Max Resp (difference between neutral response and response at highest compound concentration) [5]: -97.701
CC50 (in vitro): > 50 µM

CC(=O)O[C@@H]1C[C@]2(C)[C@@]3(CCC4[C@@]5(C)CC[C@H](O[C@@H]6O[C@H](C(=O)O)[C@@H](O)[C@H](OC7OC(CO)C(O)C(O)[C@H]7O[C@@H]7O[C@@H](C)[C@H](O)[C@@H](O)[C@H]7O[C@@H]7OC[C@](O)(CO)[C@H]7O)[C@H]6OC6OC(CO)C(O)C(O)C6O)C(C)(C)C5CC[C@]42C)OC[C@@]12CCC(C)(C)CC23 (stereo partly drawn) [NCGC00381303-01]
Efficacy [2]: -19.952
AC50 ([2]; Vero): 2.75e-06 M
IC50 ([2]; Vero, 48 h): 2.75 µM
AC50 [2, 14]: 2.75e-06 M
IC50 ([3]; Vero, 48 h): 4.48 µM
IC50 [4]: 1.77 µM
CC-v2 (curve class of the dose response curve) [5]: -1.2
Efficacy (difference between neutral response and maximum compound response) [5]: -57.722
Max Resp (difference between neutral response and response at highest compound concentration) [5]: -99.519
AC50 [5]: 3.18e-06 M
AC50 [5, 13]: 3.18e-06 M
CC50 at 48 h (in vitro; Vero cells): > 50 µM
